A word on the GI50: it is the concentration giving 50% growth inhibition.

Molecules are shown by their SMILES.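 Five concentrations, 48 hours, 96-well plates. Abbreviation: GI50, concentration required for 50% inhibition of growth.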 Active and inactive are the calls of the source. Cut-off read from the data, not from the text of the source: active = GI50 up to about 1.1 µM and inactive = higher.

The record followed here is ChEMBL document CHEMBL1201862, “PubChem BioAssay data set” (2004).

What all share (test): DTP human tumour cell line panel, 48 h
The subject of assay [1] is A498.
For assay [2], the system named is ACHN.
The test system of assay [3] is HCT-116.
In assay [4] the test system is HCT-15.
The test system of assay [5] is HL-60.
The test system of assay [6] is K562.
The test system of assay [7] is KM12.
The test system of assay [8] is LOX IMVI.
For assay [9], the system named is M14.
The test system of assay [10] is Malme-3M.
Assay [11] deals with NCI-H23.
The test system of assay [12] is NCI-H522.
In assay [13] the test system is OVCAR-4.
Assay [14] concerns OVCAR-8.
Assay [15] deals with SK-MEL-2.
For assay [16], the system named is SK-MEL-5.
Assay [17] deals with DU-145.
Assay [18] concerns MDA-MB-231.
The test system of assay [19] is PC-3.

For `C[C@@]12CCC(=O)c3coc(c31)C(=O)c1cc3c(cc12)C(=O)C=CC3=O` [HELENAQUINONE], the GI50 was > 100 µM (inactive) in [1]; 16.5 µM (inactive) in assay [2]; 15.4 µM (inactive) in [3]; 17.3 µM in [4]; 2.45 µM (inactive) in assay [5]; > 22.2 µM (inactive) in [6]. Besides, the GI50 in assay [7] was 24.7 µM (inactive); in assay [8], 8.59 µM (inactive); in assay [9], 14.5 µM (inactive); in [10] it was 17.3 µM (inactive); in assay [11], 12.5 µM (inactive); in assay [12], 9.2 µM (inactive). Besides, the GI50 in [13] is 18.2 µM (inactive); in assay [14], 16.3 µM (inactive); in assay [15] it was 23.9 µM (inactive); in assay [16], 15.1 µM (inactive).
As for `CCO[C@@H]1C2C=CC(C2)[C@H]1[N+](=O)[O-]` (stereo not given in full), the GI50 is > 100 µM (inactive) in assay [1]; > 100 µM (inactive) in [2]; > 100 µM (inactive) in [3]; above 100 µM in assay [4]; 47.3 µM (inactive) in assay [5]; 73.5 µM (inactive) in assay [6]. Moreover, the GI50 in assay [7] is > 100 µM (inactive); in assay [8], > 100 µM (inactive); in assay [9] it was > 100 µM (inactive); in assay [10], > 100 µM (inactive); in [11] it was > 100 µM (inactive); in [12], 64 µM (inactive). Further, the GI50 in assay [13], in assay [14], in [15] and in [16] was > 100 µM (inactive) each time.
For the compound `CCOC(=O)/N=c1\ss/c(=N\C(=S)N(C)C)n1-c1ccccc1`, the GI50 is 4.42 µM (inactive) in assay [1]; 52.1 µM (inactive) in assay [2]; 7.62 µM (inactive) in assay [3]; above 10 µM in [4]; > 10 µM (inactive) in assay [5]; 19 µM (inactive) in assay [6]. Also, the GI50 in assay [7] is 8.63 µM (inactive); in [8], > 100 µM (inactive); in [9], > 10 µM (inactive); in assay [10], > 10 µM (inactive); in assay [11], 67.5 µM (inactive); in assay [12] it was 0.235 µM (active). Also, the GI50 is 2.16 µM (inactive) in assay [13], > 10 µM (inactive) in assay [14], 67.8 µM (inactive) in assay [15] and 2.62 µM (inactive) in assay [16].
Take `CCOC(=O)/C(=C/c1ccc(Cl)cc1)N(CC)CC`: the GI50 in assay [1] is > 100 µM (inactive); in assay [2], > 100 µM (inactive); in assay [3], > 100 µM (inactive); in assay [4], above 100 µM; in assay [5], > 100 µM (inactive); in assay [6], > 100 µM (inactive). Besides, the GI50 is > 100 µM (inactive) in [7]; > 100 µM (inactive) in assay [8]; > 100 µM (inactive) in [9]; > 100 µM (inactive) in assay [10]; > 100 µM (inactive) in assay [11]; 89.1 µM (inactive) in assay [12]. Besides, the GI50 in assay [13], in assay [14], in assay [15] and in assay [16] was > 100 µM (inactive) each time.
For `CC1=C(/C=C/C(C)=C/C=C/C(C)=C/C=C/C=C(C)/C=C/C=C(C)/C=C/C2=C(C)C(=O)C(O)CC2(C)C)C(C)(C)CC(O)C1=O` (stereo not given), the GI50 in assay [1] was > 100 µM (inactive); in [2], > 100 µM (inactive); in assay [3], > 100 µM (inactive); in [4], above 100 µM; in [5] it was > 100 µM (inactive); in assay [6] it was > 100 µM (inactive). Also, the GI50 in [7], in [8], in assay [9], in [10], in assay [11] and in assay [12] was > 100 µM (inactive) each time. Besides, the GI50 in assay [13], in [14], in assay [15] and in [16] was > 100 µM (inactive) each time.
On to `COc1cccc(C2SCC(=O)N2c2ccc(-c3ccc(-n4c(-c5ccccc5)nc5ccccc5c4=O)cc3)cc2)c1OC` (stereo not given), for which the GI50 in assay [1] is > 100 µM (inactive); in assay [2], > 100 µM (inactive); in assay [17], > 100 µM (inactive); in assay [3], 59.8 µM (inactive); in [4] it was 52.7 µM; in [5], 73.8 µM (inactive). The GI50 was 73.6 µM (inactive) in assay [6]; 50.4 µM (inactive) in assay [7]; 50.7 µM (inactive) in [8]; > 100 µM (inactive) in assay [9]; > 100 µM (inactive) in assay [18]; > 100 µM (inactive) in assay [10]. For the same compound, the GI50 was > 100 µM (inactive) in assay [11]; > 100 µM (inactive) in assay [12]; 77.6 µM (inactive) in assay [13]; > 100 µM (inactive) in assay [14]; > 100 µM (inactive) in assay [19]; > 100 µM (inactive) in assay [15]. Besides, the GI50 in assay [16] was 30.1 µM (inactive).
`O=c1c2cc3ccccc3n2c(=O)c2cc3ccccc3n12`: the GI50 in assay [1] was > 100 µM (inactive); in [2] it was > 100 µM (inactive); in assay [3], > 100 µM (inactive); in assay [4] it was above 100 µM; in assay [5], > 100 µM (inactive); in assay [6], > 100 µM (inactive). The GI50 is 89.5 µM (inactive) in [7]; > 100 µM (inactive) in assay [8]; > 100 µM (inactive) in assay [9]; > 100 µM (inactive) in assay [10]; > 100 µM (inactive) in assay [11]; > 100 µM (inactive) in assay [12]. Besides, the GI50 in [13], in assay [14], in assay [15] and in assay [16] was > 100 µM (inactive) throughout.
Regarding `c1ccc2c3nc(C4CCCC4)nc-3c(NC3CCCC3)[nH]c2c1`, the GI50 in [1] was 21.3 µM (inactive); in [2], 25.7 µM (inactive); in [3] it was 5.66 µM (inactive); in assay [4], 8.49 µM; in assay [5] it was 2.3 µM (inactive); in [6], 7.83 µM (inactive). Further, the GI50 is 7.08 µM (inactive) in assay [7]; 15.8 µM (inactive) in [8]; 2.98 µM (inactive) in [9]; 16.6 µM (inactive) in [10]; 15.7 µM (inactive) in [11]; 18.4 µM (inactive) in [12]. For the same compound, the GI50 is 14.4 µM (inactive) in assay [13], 6.87 µM (inactive) in assay [14], 14 µM (inactive) in assay [15] and 6.98 µM (inactive) in assay [16].
Turning to `C=CCn1c(-c2cc(C(C)(C)C)c(O)c(C(C)(C)C)c2)cs/c1=N\C(P(=O)(O)O)P(=O)(O)O`, the GI50 in assay [1] is > 100 µM (inactive); in assay [2], > 100 µM (inactive); in [17], > 100 µM (inactive); in [3], 14.7 µM (inactive); in [4], above 100 µM; in assay [5], 19.9 µM (inactive). Also, the GI50 was > 100 µM (inactive) in assay [6]; 83 µM (inactive) in assay [7]; > 100 µM (inactive) in [9]; 35.2 µM (inactive) in [18]; > 100 µM (inactive) in assay [10]; > 100 µM (inactive) in assay [11]. For the same compound, the GI50 in assay [13], in assay [14], in assay [19] and in [15] was > 100 µM (inactive) throughout.
With `COc1ccc(CC(C)N)cc1` (stereo not given) [PARA-METHOXYAMPHETAMINE], the GI50 in assay [1] is > 100 µM (inactive); in [2], > 100 µM (inactive); in [3], > 100 µM (inactive); in assay [4] it was above 100 µM; in assay [5], > 100 µM (inactive); in assay [6], > 100 µM (inactive). In addition, the GI50 in assay [7], in [8], in assay [9], in assay [10], in assay [11] and in assay [12] was > 100 µM (inactive) throughout. Besides, the GI50 in assay [13], in assay [14], in [15] and in assay [16] was > 100 µM (inactive) throughout.
On to `Cc1cc(N(CCC#N)S(C)(=O)=O)ccc1C=O`, for which the GI50 in assay [1] is > 100 µM (inactive); in assay [2] it was > 100 µM (inactive); in assay [3] it was > 100 µM (inactive); in assay [4], above 100 µM; in [5], > 100 µM (inactive); in [6], > 100 µM (inactive). For the same compound, the GI50 in assay [7], in assay [8], in assay [9], in [10], in assay [11] and in assay [12] was > 100 µM (inactive) in each case. Also, the GI50 in assay [13], in assay [14], in [15] and in assay [16] was > 100 µM (inactive) in each case.
Regarding `COc1ccc(/C=C2\SC(c3ccc(OC)cc3)N(NC(=O)Cc3ccccc3)C2=O)cc1` (stereo not given), the GI50 in [1] was > 100 µM (inactive); in [2], > 100 µM (inactive); in [3] it was > 100 µM (inactive); in assay [4], above 100 µM; in [5] it was 94.8 µM (inactive); in [6], 88.1 µM (inactive). In addition, the GI50 in assay [7], in assay [8], in assay [9], in assay [10], in assay [11] and in assay [12] was > 100 µM (inactive) each time. Also, the GI50 in assay [13], in [14], in assay [15] and in [16] was > 100 µM (inactive) in each case.
